Results on 7 compounds are retold here after ChEMBL document CHEMBL5584240, “Evaluation of potency and metabolic stability of diphyllin-derived Vacuolar-ATPase inhibitors” (Eur J Med Chem, 2024).

The nature of series [1]: MRT in CD-1 mouse at 50 mg/kg, po by LC-MS/MS analysis. It is filed as ADME, organism-based. The conditions noted are these: in vivo.
Series [2] is described as follows: Selectivity index, ratio of CC50 for human primary macrophages to EC50 for recombinant Ebola virus Mayinga expressing GFP infected in human primary macrophages. The conditions noted are these: read-out: Ratio CC50/EC50. It is filed as toxicity.
Series [3] relates to Ebolavirus. Kind of series: Antiviral activity against recombinant Ebola virus Mayinga expressing GFP infected in human HeLa cells with ATP6V0a2 KO assessed as reduction in viral entry into cells pretreated for 1 hr followed by viral infection measured after 24 to 48 hrs by imaging analysis. It is filed as functional, organism-based. The conditions noted are these: Orthoebolavirus.

Series [4] is described as follows: AUC (infinity) in CD-1 mouse at 50 mg/kg, po by LC-MS/MS analysis. In kind it is ADME, organism-based. The conditions noted are these: in vivo.
Series [5] can be described thus: Tmax in CD-1 mouse at 50 mg/kg, po by LC-MS/MS analysis. Particulars: in vivo. It is filed as ADME, organism-based.
Series [6] can be described thus: Apparent volume of distribution during terminal phase in CD-1 mouse at 50 mg/kg, po by LC-MS/MS analysis. It is filed as ADME, organism-based. Particulars: in vivo, read-out: Vz/F.
A short description of series [7]: Cmax in CD-1 mouse at 50 mg/kg, po by LC-MS/MS analysis. In kind it is ADME, organism-based. The conditions noted are these: in vivo.
The test system of series [8] is HEK293. Kind of series: Cytotoxicity against HEK293 cells incubated for 72 hrs by MTT assay. Particulars: human, hek293, 72 h. In kind it is toxicity, cell-based. For orientation: Tetrazolium dyes change colour on reduction, which living cells bring about.
Series [9] concerns Ebolavirus. Kind of series: Antiviral activity against recombinant Ebola virus Mayinga expressing GFP infected in human primary macrophages assessed as reduction in infectivity pretreated for 1 hr followed by viral infection measured after 24 to 48 hrs by imaging analysis. It is filed as functional, organism-based. Particulars: Orthoebolavirus, Primary macrophage.
Series [10] in a line: AUC (0.25 to 24 hrs) in CD-1 mouse at 50 mg/kg, po by LC-MS/MS analysis. It is filed as ADME, organism-based. Particulars: in vivo.
The nature of series [11]: Half life in CD-1 mouse at 50 mg/kg, po by LC-MS/MS analysis. Particulars: in vivo. It is filed as ADME, organism-based.
Series [12] deals with Voltage-gated inwardly rectifying potassium channel KCNH2 (Homo sapiens, UniProt Q12809). Put plainly: Inhibition of hERG at 10 uM relative to control. In kind it is toxicity. For orientation: The hERG channel carries a current that helps repolarise heart muscle cells.
Series [13] can be described thus: Selectivity index, ratio of CC50 for HEK293 cells to EC50 for recombinant Ebola virus Mayinga expressing GFP infected in human HeLa cells with ATP6V0a2 KO. It is filed as toxicity, cell-based. Particulars: read-out: Ratio CC50/EC50.
The nature of series [14]: Apparent oral clearance in CD-1 mouse at 50 mg/kg, po by LC-MS/MS analysis. In kind it is ADME, organism-based. The conditions noted are these: in vivo.
The subject of series [15] is A549. Put plainly: Induction of phospholipidosis in NBD-PE-treated human A549 cells at 1 uM incubated for 24 hrs by imaging based analysis. It is filed as functional, cell-based.
Series [16] concerns A549. Kind of series: Induction of phospholipidosis in NBD-PE-treated human A549 cells at 5 to 10 uM incubated for 24 hrs by imaging based analysis. It is filed as functional, cell-based. The conditions noted are these: dose 5-10 µM.
The subject of series [17] is A549. Put plainly: Induction of phospholipidosis in NBD-PE-treated human A549 cells at 10 uM incubated for 24 hrs by imaging based analysis. It is filed as functional, cell-based.
Series [18] in a line: Oral bioavailability in ICR mouse at 75 mg/kg by LC-MS/MS analysis. It is filed as ADME, organism-based. The conditions noted are these: in vivo.

SMILES strings stand for the structures. pEC50: −log10 of the molar value. Active and inactive are the calls of the source. No cut-off for these calls is given here.

Chain of Voltage-gated inwardly rectifying potassium channel KCNH2 (Q12809 whole entry): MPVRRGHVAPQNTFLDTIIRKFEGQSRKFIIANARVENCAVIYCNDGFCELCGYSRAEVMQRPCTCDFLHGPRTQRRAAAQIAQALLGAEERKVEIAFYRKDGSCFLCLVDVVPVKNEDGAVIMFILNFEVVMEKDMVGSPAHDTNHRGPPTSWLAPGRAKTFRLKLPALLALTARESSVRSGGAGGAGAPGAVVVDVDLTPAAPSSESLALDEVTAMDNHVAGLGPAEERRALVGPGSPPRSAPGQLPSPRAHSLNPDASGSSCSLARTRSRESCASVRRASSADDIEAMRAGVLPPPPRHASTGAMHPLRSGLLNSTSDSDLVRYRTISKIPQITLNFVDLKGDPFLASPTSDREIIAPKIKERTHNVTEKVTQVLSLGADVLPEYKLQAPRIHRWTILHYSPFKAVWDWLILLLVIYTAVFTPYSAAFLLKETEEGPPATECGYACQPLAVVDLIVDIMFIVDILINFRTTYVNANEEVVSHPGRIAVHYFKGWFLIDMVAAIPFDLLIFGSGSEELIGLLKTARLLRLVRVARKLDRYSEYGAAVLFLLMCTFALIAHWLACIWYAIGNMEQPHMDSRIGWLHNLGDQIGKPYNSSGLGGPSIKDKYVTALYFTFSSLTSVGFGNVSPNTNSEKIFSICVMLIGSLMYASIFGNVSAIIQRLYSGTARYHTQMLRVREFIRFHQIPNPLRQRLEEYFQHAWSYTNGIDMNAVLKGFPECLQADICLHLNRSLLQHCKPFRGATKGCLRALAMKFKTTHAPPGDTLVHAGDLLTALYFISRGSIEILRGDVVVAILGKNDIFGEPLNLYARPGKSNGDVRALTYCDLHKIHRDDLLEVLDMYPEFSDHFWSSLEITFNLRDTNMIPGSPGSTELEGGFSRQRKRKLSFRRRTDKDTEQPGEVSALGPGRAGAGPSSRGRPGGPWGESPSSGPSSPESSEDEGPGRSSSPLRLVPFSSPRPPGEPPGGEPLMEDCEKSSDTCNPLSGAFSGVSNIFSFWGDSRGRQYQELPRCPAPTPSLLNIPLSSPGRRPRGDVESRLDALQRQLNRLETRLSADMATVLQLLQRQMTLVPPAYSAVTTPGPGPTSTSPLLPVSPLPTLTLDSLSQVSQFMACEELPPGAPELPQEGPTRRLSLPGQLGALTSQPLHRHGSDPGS

The MRT is a mean duration of stay, worked out from the concentration-time curve. As a reminder, the pEC50 is the EC50 on a negative log10 scale, so that one unit is a factor of ten. Usually AUC stands for the area under the concentration-time curve, a measure of exposure. A word on the Tmax: it is the time from dosing to the highest level. What is called Cmax is the highest concentration seen after dosing. As a reminder, the CC50 is the concentration at which the toxic effect on the cells reaches its halfway point. For orientation: AUC(0-t) means the area under the concentration-time curve up to a stated or last time point. Low values mean less exposure, high ones more exposure. As a reminder, the CL/F is clearance divided by bioavailability, as obtained after extravascular dosing. For `COc1cc2c(OC3CCOC3)c3c(c(-c4ccc5c(c4)OCO5)c2cc1OC)C(=O)OC3` (stereo not given), the mean residence time MRT in series [1] stood at 18 h. Also, the selectivity ratio was 132 in [2] and 87 in [13]. For the same compound, the pEC50 in series [3] was 7.40; in series [9], 6.97. The same compound yielded an area under the curve (AUC) in series [4] of 16.455 µM·h. Moreover, the Tmax in [5] was 0.5 h. The Vd/F in series [6] came to 2.63 L. The compound further came in with a peak concentration (Cmax) in [7] of 1250 nM. The CC50 in series [8] is > 80000 nM. The AUC(0-t) in [10] came out at 12 µM·h. Also, the t1/2 in [11] was found to be 13.5 h. In series [12], the “inhibition (INH)” value was determined as 30%. In addition, in [14], the CL/F is 2.25 mL/min.
`COc1cc2c(OCCCN3CCN(C)C(=O)C3)c3c(c(-c4ccc5c(c4)OCO5)c2cc1OC)C(=O)OC3`: the results for the selectivity ratio in [2] and in [13] were > 150 and > 340, respectively. The figures for the pEC50 in series [3] and in series [9] were 7.13 and 6.78, respectively. Also, in series [15], the result was inactive. Moreover, the CC50 in series [8] was > 80000 nM. Also, in series [12], the “inhibition (INH)” value amounted to 9%.
As to `COc1cc2c(OCCCN3CCS(=O)(=O)CC3)c3c(c(-c4ccc5c(c4)OCO5)c2cc1OC)C(=O)OC3`, the selectivity ratio in series [2] is 138; in series [13], > 240. For the same compound, the pEC50 in series [3] is 6.93; in series [9], 6.74. The outcome in series [15] was inactive. Moreover, the CC50 in [8] is > 80000 nM. In series [12], the “inhibition (INH)” value turned out to be 21%.
As for `CCCCc1oc2ccccc2c1C(=O)c1cc(I)c(OCCN(CC)CC)c(I)c1`, the outcome in series [16] was Active.
Consider `COc1cc2c(O)c3c(c(-c4ccc5c(c4)OCO5)c2cc1OC)C(=O)OC3` [DIPHYLLIN], for which, in series [3], the pEC50 is 5.96. In addition, the outcome in series [17] was inactive. Besides, in [8], the CC50 is > 80000 nM.
For `COc1cc2c(OC3CCNCC3)c3c(c(-c4ccc5c(c4)OCO5)c2cc1OC)C(=O)OC3`, in [1], the MRT was 113 h. Besides, the pEC50 in [3] is 7.49. The AUC in series [4] worked out at 2.532 µM·h. For the same compound, in series [5], the Tmax stood at 2 h. In addition, the Vd/F in [6] stood at 105 L. The concentration in series [7] peaked (Cmax) at 151 nM. For the same compound, the CC50 in series [8] is > 80000 nM. Besides, in [10], the AUC(0-t) is 0.636 µM·h. The t1/2 in series [11] was 86.2 h. Further, the “inhibition (INH)” value in [12] is listed as 80%. The selectivity ratio in series [13] amounted to 510. In addition, in [14], the apparent clearance CL/F is 14.1 mL/min.
The bioavailability is the share of a dose that reaches the circulation, judged against a reference dose that is usually intravenous. A low value points to little systemic uptake. As to `COc1cc2c(O[C@@H]3O[C@H](CO)[C@@H]4OC(C)(C)O[C@@H]4[C@H]3O)c3c(c(-c4ccc5c(c4)OCO5)c2cc1OC)C(=O)OC3`, the bioavailability in series [18] was determined as 2.5%.
